Results reported in publication PMC8534114, “Molecular Basis of a Dominant SARS-CoV-2 Spike-Derived Epitope Presented by HLA-A*02:01 Recognised by a Public TCR” (Cells, 2021).

Experiments:
[1] = tested on: CD8+ T cells; assay type: cell-based, human
[2] = tested on: CD8+ T cells; conditions: cited from earlier work

## YLQPRTFLL
[1]
  CD8+ T cell response, overall: all able to generate a polyfunctional CD8+ T cell response
[2]
  CD8+ T cell response (in words): strong CD8+ T cell response
  CD8+ T cell stimulation (in words): strongly stimulate CD8+ T cells
